Each block holds one compound with its values, some of them ahead of it.
Columns and labels:
[1] = Antiproliferative activity against human EFM-192A cells assessed as reduction in cell growth measured for 24 hrs by MTT assay; type: functional, cell-based
[2] = target: Serine/threonine-protein kinase mTOR (Homo sapiens, UniProt P42345); test: Inhibition of mTOR (unknown origin)
MCF7 = test: Antiproliferative activity against human MCF7 cells assessed as reduction in cell viability by MTT assay; type: functional, cell-based
MDA-MB-231 = test: Antiproliferative activity against human MDA-MB-231 cells assessed as reduction in cell viability by MTT assay; type: functional, cell-based
[3] = target: Phosphatidylinositol 4,5-bisphosphate 3-kinase catalytic subunit alpha isoform (Homo sapiens, UniProt P42336); test: Inhibition of PI3Kalpha (unknown origin)
Sequence of Phosphatidylinositol 4,5-bisphosphate 3-kinase catalytic subunit alpha isoform (P42336 whole entry, canonical isoform): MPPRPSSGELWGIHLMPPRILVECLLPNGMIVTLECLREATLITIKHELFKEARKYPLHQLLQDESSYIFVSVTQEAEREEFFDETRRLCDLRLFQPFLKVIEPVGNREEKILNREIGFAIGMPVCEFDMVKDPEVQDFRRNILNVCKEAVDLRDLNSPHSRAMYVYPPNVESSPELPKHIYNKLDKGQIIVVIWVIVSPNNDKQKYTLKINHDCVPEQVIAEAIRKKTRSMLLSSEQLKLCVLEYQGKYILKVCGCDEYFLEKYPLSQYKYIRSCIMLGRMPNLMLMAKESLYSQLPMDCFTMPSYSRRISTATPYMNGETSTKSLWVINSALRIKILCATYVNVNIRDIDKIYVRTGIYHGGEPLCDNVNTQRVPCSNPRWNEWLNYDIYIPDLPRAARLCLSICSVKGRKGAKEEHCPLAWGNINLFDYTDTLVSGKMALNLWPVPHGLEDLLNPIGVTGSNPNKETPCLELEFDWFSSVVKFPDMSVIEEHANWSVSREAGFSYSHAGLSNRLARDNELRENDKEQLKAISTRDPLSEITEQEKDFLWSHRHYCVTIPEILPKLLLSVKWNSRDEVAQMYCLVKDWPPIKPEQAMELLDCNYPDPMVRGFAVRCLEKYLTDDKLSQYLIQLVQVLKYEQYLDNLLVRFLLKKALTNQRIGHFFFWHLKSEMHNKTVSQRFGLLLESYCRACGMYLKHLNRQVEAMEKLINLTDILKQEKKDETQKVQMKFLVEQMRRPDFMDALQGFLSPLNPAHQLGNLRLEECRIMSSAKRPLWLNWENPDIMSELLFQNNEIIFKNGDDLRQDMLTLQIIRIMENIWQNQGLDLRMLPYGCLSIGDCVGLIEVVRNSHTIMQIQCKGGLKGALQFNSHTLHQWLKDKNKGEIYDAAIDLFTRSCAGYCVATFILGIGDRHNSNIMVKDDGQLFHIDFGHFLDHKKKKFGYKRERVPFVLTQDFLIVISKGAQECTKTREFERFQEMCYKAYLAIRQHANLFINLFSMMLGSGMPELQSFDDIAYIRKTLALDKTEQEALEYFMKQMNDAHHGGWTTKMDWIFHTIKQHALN

[4] = Growth inhibition of human Triple-negative breast cancer cell incubated for 24 hrs by MTT assay; type: functional

SMILES: COc1ccc(CCc2cc(OC)c(OC)c(OC)c2)cc1O
IC50 [1]: 78.6 nM

IC50 [2]: 60.8 nM | IC50 (MCF7): 2 nM | IC50 (MDA-MB-231): 2 nM | IC50 [3]: 291 nM
SMILES: CS(=O)(=O)N1CCN(Cc2ccc(-c3nc(-c4ccc(NC(=O)Nc5cccnc5)cc4)nc(N4CCOCC4)n3)s2)CC1

SMILES: N#Cc1ccc(CN2C(=O)c3cc4ccccc4n3C[C@H]2C(=O)NCc2ccccc2)cc1
GI50 [4]: 2960 nM

Reference: ChEMBL document CHEMBL6092127, “Recent advancement in developing small molecular inhibitors targeting key kinase pathways against triple-negative breast cancer” (Bioorg Med Chem, 2024)
